Read-outs that look alike come from different tables or passages of the source.
Assays:
Assay type in all cases: cell-based
[1] = molecular target: T1, LRRK2 (endogenous, HiBit tagged) (Homo sapiens, UniProt Q5S007); experiment: Endogenous LRRK2 degradation assay, endogenous gene C-terminally HiBit-tagged in HEK293 cells (Nano-Glo Dual Luciferase); details: endogenous HiBit-tagged LRRK2 in HEK293 cells, 24 hours; for Dmax: read-out: **Endogenous WT Dmax (%); for DC50: read-out: *Endogenous WT DC50
T1 construct: endogenous in cells; host or cells: HEK293 cells with HiBit knock-in at the endogenous LRRK2 locus, stably expressing firefly luciferase
T1 sequence (Q5S007 whole entry): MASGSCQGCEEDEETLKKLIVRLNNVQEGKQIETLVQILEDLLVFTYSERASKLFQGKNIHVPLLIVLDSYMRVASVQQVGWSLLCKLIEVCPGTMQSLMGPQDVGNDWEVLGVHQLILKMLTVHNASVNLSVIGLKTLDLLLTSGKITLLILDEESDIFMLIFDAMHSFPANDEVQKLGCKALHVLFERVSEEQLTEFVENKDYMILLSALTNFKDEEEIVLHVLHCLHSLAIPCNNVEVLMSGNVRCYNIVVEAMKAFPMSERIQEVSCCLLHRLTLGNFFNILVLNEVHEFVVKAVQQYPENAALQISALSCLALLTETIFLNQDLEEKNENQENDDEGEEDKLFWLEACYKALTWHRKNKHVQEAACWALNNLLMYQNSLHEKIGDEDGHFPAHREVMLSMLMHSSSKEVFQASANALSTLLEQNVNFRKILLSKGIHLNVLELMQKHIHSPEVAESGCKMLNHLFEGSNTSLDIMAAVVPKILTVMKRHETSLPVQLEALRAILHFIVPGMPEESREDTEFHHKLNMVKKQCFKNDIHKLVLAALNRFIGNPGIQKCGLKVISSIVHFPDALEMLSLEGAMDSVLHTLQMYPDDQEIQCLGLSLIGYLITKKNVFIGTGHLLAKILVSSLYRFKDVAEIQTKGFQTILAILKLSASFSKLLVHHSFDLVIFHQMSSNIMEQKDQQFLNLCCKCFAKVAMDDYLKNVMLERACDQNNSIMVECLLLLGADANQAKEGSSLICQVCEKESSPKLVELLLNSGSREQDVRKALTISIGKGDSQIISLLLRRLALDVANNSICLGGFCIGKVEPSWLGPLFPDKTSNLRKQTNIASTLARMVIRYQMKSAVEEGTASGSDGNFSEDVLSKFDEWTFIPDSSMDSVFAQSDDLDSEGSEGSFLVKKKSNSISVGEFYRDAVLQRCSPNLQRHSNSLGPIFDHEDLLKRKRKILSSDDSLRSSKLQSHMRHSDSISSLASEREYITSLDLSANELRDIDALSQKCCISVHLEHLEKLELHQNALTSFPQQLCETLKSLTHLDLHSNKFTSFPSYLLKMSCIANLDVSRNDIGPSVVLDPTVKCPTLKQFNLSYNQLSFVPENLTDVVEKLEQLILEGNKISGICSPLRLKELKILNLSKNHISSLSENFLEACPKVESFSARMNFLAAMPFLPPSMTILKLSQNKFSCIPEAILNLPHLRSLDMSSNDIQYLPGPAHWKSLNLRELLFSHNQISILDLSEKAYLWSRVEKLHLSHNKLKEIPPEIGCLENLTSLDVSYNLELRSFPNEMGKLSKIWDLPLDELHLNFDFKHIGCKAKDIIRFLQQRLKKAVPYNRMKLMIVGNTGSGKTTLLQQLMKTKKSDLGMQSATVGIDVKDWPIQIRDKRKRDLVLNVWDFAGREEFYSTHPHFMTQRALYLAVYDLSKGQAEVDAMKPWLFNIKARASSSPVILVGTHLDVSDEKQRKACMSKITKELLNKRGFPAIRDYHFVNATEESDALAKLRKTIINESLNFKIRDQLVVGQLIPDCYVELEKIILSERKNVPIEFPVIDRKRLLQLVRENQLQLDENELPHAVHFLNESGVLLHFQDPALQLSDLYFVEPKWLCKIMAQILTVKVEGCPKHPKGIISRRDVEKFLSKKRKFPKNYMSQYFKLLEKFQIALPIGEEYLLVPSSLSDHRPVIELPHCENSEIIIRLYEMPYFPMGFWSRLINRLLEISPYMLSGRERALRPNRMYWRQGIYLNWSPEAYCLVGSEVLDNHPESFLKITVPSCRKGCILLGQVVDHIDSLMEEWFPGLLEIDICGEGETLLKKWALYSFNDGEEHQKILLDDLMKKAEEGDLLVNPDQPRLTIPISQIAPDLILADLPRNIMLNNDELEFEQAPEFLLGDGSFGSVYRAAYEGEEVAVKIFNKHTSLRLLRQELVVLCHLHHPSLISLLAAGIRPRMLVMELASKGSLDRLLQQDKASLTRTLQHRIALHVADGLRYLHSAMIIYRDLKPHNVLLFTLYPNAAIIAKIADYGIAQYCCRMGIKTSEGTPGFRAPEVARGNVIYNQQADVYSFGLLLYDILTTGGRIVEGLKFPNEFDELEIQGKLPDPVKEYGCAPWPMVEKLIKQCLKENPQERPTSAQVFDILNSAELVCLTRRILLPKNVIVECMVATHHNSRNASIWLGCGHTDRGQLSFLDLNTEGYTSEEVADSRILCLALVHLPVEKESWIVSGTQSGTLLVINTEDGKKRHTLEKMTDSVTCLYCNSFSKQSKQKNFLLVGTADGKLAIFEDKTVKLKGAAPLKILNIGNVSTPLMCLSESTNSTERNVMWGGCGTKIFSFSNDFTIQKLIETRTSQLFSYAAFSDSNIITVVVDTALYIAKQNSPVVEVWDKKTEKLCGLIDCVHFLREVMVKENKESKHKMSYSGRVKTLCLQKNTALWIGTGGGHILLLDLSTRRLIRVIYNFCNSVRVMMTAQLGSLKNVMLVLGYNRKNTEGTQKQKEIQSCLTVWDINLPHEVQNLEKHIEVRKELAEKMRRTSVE
In short: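 LRRK2-HiBit quantified via Nano-Glo Dual Luciferase in HEK293 knock-in cells co-expressing firefly luciferase, after 24 h exposure to compound (1 μM final top, 1:3, 11 points). Values normalised to DMSO median per plate and curve-fitted; Alamar Blue viability run alongside.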

wildtype LRRK2 = molecular target: T2, wildtype LRRK2 (Homo sapiens, UniProt Q5S007); experiment: LRRK2 degradation assay, HiBit-tagged wildtype LRRK2 expressed from plasmid in HEK293 cells (Nano-Glo Dual-Luciferase); details: 24 hours; for Dmax: read-out: **WT Dmax (%); for DC50: read-out: *WT DC50
T2 construct: expressed in transfected cells; host or cells: HEK293 (ATCC CRL-1573), transient transfection, mammalian expression vector with ubiquitin promoter
T2 sequence (Q5S007 whole entry): as above
In short: (§1)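 Degradation read as Nano-Glo HiBiT signal over firefly luciferase (cell number/viability) after 24 h compound exposure of transiently transfected HEK293 expressing C-terminally HiBiT-tagged wildtype or G2019S LRRK2. Data as % DMSO; DC50/Dmax fitted per plate, triplicate plates repeated twice.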

G2019S LRRK2 = molecular target: T3, G2019S LRRK2 (Homo sapiens, UniProt Q5S007, G2019S); experiment: LRRK2 degradation assay, HiBit-tagged G2019S LRRK2 expressed from plasmid in HEK293 cells (Nano-Glo Dual-Luciferase); details: 24 hours
T3 construct: expressed in transfected cells; host or cells: HEK293 (ATCC CRL-1573), transient transfection, mammalian expression vector with ubiquitin promoter
T3 sequence (Q5S007 whole entry G2019S): as the sequence (Q5S007 whole entry) above, with G2019S counted along it
In short: as §1

[2] = HiBit-tagged wildtype LRRK2 in HEK293 cells
[3] = HiBit-tagged G2019S LRRK2 in HEK293 cells
[4] = HiBit-tagged wildtype LRRK2, HEK293 cells
[5] = HiBit-tagged G2019S LRRK2, HEK293 cells

For `CC1(Oc2ccc3[nH]nc(-c4cc(N5CCN(C[C@H]6CC(=O)N(CC7CCN(c8ccc9c(c8)C(=O)N(C8CCC(=O)NC8=O)C9=O)CC7)C6)CC5)ncn4)c3c2)CC1` (single isomer, unassigned) [Compound 120], the Dmax [1] was 50 to 70%, the DC50 [1] was under 10 nM and the Dmax (wildtype LRRK2; [2]) was 50 to 70%. For the same molecule, the DC50 (wildtype LRRK2; [2]) was under 10 nM, the DC50 (G2019S LRRK2; [3]) was under 10 nM and the Dmax (G2019S LRRK2; [3]) was 50 to 70%.

Molecule `CC1(Oc2ccc3[nH]nc(-c4cc(N5CCN(C[C@@H]6CC(=O)N(CC7CCN(c8ccc9c(c8)C(=O)N(C8CCC(=O)NC8=O)C9=O)CC7)C6)CC5)ncn4)c3c2)CC1` (single isomer, unassigned) [Compound 121] has a Dmax [1] of at least 70%, a DC50 [1] of under 10 nM and a Dmax (wildtype LRRK2; [2]) of 50 to 70%. For the same molecule, the DC50 (wildtype LRRK2; [2]) was under 10 nM, the DC50 (G2019S LRRK2; [3]) was under 10 nM and the Dmax (G2019S LRRK2; [3]) was 50 to 70%.

`CC1(Oc2ccc3[nH]nc(-c4ccnc(N5CC6(CCN6CC6CCN(CC7CCN(c8ccc9c(c8)C(=O)N(C8CCC(=O)NC8=O)C9=O)CC7)CC6)C5)c4)c3c2)CC1` (centres unmarked) [Compound 163, 2-(2,6-dioxo-3-piperidyl)-5-[4-[[4-[[6-[4-[5-(1-methylcyclopropoxy)-1H-indazol-3-yl]-2-pyridyl]-1,6-diazaspiro[3.3]heptan-1-yl]methyl]-1-piperidyl]methyl]-1-piperidyl]isoindoline-1,3-dione] showed a Dmax (wildtype LRRK2; [4]) of under 50%, a DC50 (wildtype LRRK2; [4]) of 10 to 50 nM and a DC50 (G2019S LRRK2; [5]) of 10 to 50 nM. The Dmax (G2019S LRRK2; [5]) was under 50%.

For `CC1(Oc2ccc3[nH]nc(-c4cc(N5CC(CC6CCN(CC7CCN(c8ccc9c(c8)C(=O)N(C8CCC(=O)NC8=O)C9=O)CC7)CC6)C5)ncn4)c3c2)CC1` (centres unmarked) [Compound 164, 2-(2,6-dioxo-3-piperidyl)-5-[4-[[4-[[1-[6-[5-(1-methylcyclopropoxy)-1H-indazol-3-yl]pyrimidin-4-yl]azetidin-3-yl]methyl]-1-piperidyl]methyl]-1-piperidyl]isoindoline-1,3-dione], the Dmax (wildtype LRRK2; [4]) was 50 to 70%, the DC50 (wildtype LRRK2; [4]) was under 10 nM and the DC50 (G2019S LRRK2; [5]) was under 10 nM. For the same molecule, the Dmax (G2019S LRRK2; [5]) was at least 70%.

Work on `CC1(Oc2ccc3[nH]nc(-c4ccnc(N5CC(CCC6CCN(CC7CCN(c8ccc9c(c8)C(=O)N(C8CCC(=O)NC8=O)C9=O)CC7)CC6)C5)c4)c3c2)CC1` (centres unmarked) [Compound 165, 2-(2,6-dioxo-3-piperidyl)-5-[4-[[4-[2-[1-[4-[5-(1-methylcyclopropoxy)-1H-indazol-3-yl]-2-pyridyl]azetidin-3-yl]ethyl]-1-piperidyl]methyl]-1-piperidyl]isoindoline-1,3-dione] yielded a Dmax (wildtype LRRK2; [4]) of under 50%, a DC50 (wildtype LRRK2; [4]) of under 10 nM and a DC50 (G2019S LRRK2; [5]) of under 10 nM. For the same molecule, the Dmax (G2019S LRRK2; [5]) was 50 to 70%.

Work on `CC1(Oc2ccc3[nH]nc(-c4cc(N5CC[C@H](CN6CCN(CC7CCN(c8ccc9c(c8)C(=O)N(C8CCC(=O)NC8=O)C9=O)CC7)CC6)C5)ncn4)c3c2)CC1` (stereo partly drawn) [Compound 166, 2-(2,6-dioxo-3-piperidyl)-5-[4-[[4-[[(3R)-1-[6-[5-(1-methylcyclopropoxy)-1H-indazol-3-yl]pyrimidin-4-yl]pyrrolidin-3-yl]methyl]piperazin-1-yl]methyl]-1-piperidyl]isoindoline-1,3-dione] yielded a Dmax (wildtype LRRK2; [4]) of under 50%, a DC50 (wildtype LRRK2; [4]) of under 10 nM and a DC50 (G2019S LRRK2; [5]) of under 10 nM. For the same molecule, the Dmax (G2019S LRRK2; [5]) was under 50%.

For `CC1(Oc2ccc3[nH]nc(-c4cc(N5CC[C@@H](CN6CCN(CC7CCN(c8ccc9c(c8)C(=O)N(C8CCC(=O)NC8=O)C9=O)CC7)CC6)C5)ncn4)c3c2)CC1` (stereo partly drawn) [Compound 167, 2-(2,6-dioxo-3-piperidyl)-5-[4-[[4-[[(3S)-1-[6-[5-(1-methylcyclopropoxy)-1H-indazol-3-yl]pyrimidin-4-yl]pyrrolidin-3-yl]methyl]piperazin-1-yl]methyl]-1-piperidyl]isoindoline-1,3-dione], the Dmax (wildtype LRRK2; [4]) was 50 to 70%, the DC50 (wildtype LRRK2; [4]) was under 10 nM and the DC50 (G2019S LRRK2; [5]) was under 10 nM. It also gave a Dmax (G2019S LRRK2; [5]) of 50 to 70%.

In the case of `C[C@H]1CN(c2cc(-c3[nH]nc4ccc(OC5(C)CC5)cc34)ncn2)CCN1Cc1cn(CC2CCN(c3ccc4c(c3)C(=O)N(C3CCC(=O)NC3=O)C4=O)CC2)nn1` (stereo partly drawn) [Compound 168, 2-(2,6-dioxo-3-piperidyl)-5-[4-[[4-[[(2S)-2-methyl-4-[6-[5-(1-methylcyclopropoxy)-2H-indazol-3-yl]pyrimidin-4-yl]piperazin-1-yl]methyl]triazol-1-yl]methyl]-1-piperidyl]isoindoline-1,3-dione], the Dmax (wildtype LRRK2; [4]) is reported as under 50%, the DC50 (wildtype LRRK2; [4]) is reported as under 10 nM and the DC50 (G2019S LRRK2; [5]) is reported as 10 to 50 nM. For the same molecule, the Dmax (G2019S LRRK2; [5]) was under 50%.

For `CC1(Oc2ccc3n[nH]c(-c4cc(N5CCN(Cc6ccc(CN7CCN(c8ccc9c(c8)C(=O)N(C8CCC(=O)NC8=O)C9=O)CC7)cc6)CC5)ncn4)c3c2)CC1` (centres unmarked) [Compound 169, 2-(2,6-dioxo-3-piperidyl)-5-[4-[[4-[[4-[6-[5-(1-methylcyclopropoxy)-2H-indazol-3-yl]pyrimidin-4-yl]piperazin-1-yl]methyl]phenyl]methyl]piperazin-1-yl]isoindoline-1,3-dione], the Dmax (wildtype LRRK2; [4]) was under 50%, the DC50 (wildtype LRRK2; [4]) was under 10 nM and the DC50 (G2019S LRRK2; [5]) was 10 to 50 nM. It also gave a Dmax (G2019S LRRK2; [5]) of 50 to 70%.

`CC1(Oc2ccc3[nH]nc(-c4cc(N5CCN(Cc6cccc(CN7CCN(c8ccc9c(c8)C(=O)N(C8CCC(=O)NC8=O)C9=O)CC7)c6)CC5)ncn4)c3c2)CC1` (centres unmarked) [Compound 170, 2-(2,6-dioxo-3-piperidyl)-5-[4-[[3-[[4-[6-[5-(1-methylcyclopropoxy)-2H-indazol-3-yl]pyrimidin-4-yl]piperazin-1-yl]methyl]phenyl]methyl]piperazin-1-yl]isoindoline-1,3-dione] was tested, and the DC50 (wildtype LRRK2; [4]) was at least 100 nM and the DC50 (G2019S LRRK2; [5]) was at least 100 nM.

`CC1(Oc2ccc3n[nH]c(-c4cc(N5CCC(Cc6ccc(CC7CCN(c8ccc9c(c8)C(=O)N(C8CCC(=O)NC8=O)C9=O)CC7)cc6)CC5)ncn4)c3c2)CC1` (centres unmarked) [Compound 171, 2-(2,6-dioxo-3-piperidyl)-5-[4-[[4-[[1-[6-[5-(1-methylcyclopropoxy)-2H-indazol-3-yl]pyrimidin-4-yl]-4-piperidyl]methyl]phenyl]methyl]-1-piperidyl]isoindoline-1,3-dione] showed a DC50 (wildtype LRRK2; [4]) of at least 100 nM, a DC50 (G2019S LRRK2; [5]) of at least 100 nM and a Dmax (G2019S LRRK2; [5]) of under 50%.

Work on `CC1(Oc2ccc3n[nH]c(-c4cc(N5CCN(Cc6ccc(CN7CCN(c8ccc9c(c8)C(=O)N(C8CCC(=O)NC8=O)C9=O)CC7)nn6)CC5)ncn4)c3c2)CC1` (centres unmarked) [Compound 172, 2-(2,6-dioxo-3-piperidyl)-5-[4-[[6-[[4-[6-[5-(1-methylcyclopropoxy)-2H-indazol-3-yl]pyrimidin-4-yl]piperazin-1-yl]methyl]pyridazin-3-yl]methyl]piperazin-1-yl]isoindoline-1,3-dione] yielded a Dmax (wildtype LRRK2; [4]) of 50 to 70%, a DC50 (wildtype LRRK2; [4]) of under 10 nM and a DC50 (G2019S LRRK2; [5]) of under 10 nM. It also gave a Dmax (G2019S LRRK2; [5]) of 50 to 70%.

With `CC1(Oc2ccc3[nH]nc(-c4ccnc(N5CCC(Cc6ccc(CC7CCN(c8ccc9c(c8)C(=O)N(C8CCC(=O)NC8=O)C9=O)CC7)cc6)CC5)c4)c3c2)CC1` (centres unmarked) [Compound 173, 2-(2,6-dioxo-3-piperidyl)-5-[4-[[4-[[1-[4-[5-(1-methylcyclopropoxy)-1H-indazol-3-yl]-2-pyridyl]-4-piperidyl]methyl]phenyl]methyl]-1-piperidyl]isoindoline-1,3-dione] the DC50 (wildtype LRRK2; [4]) was at least 100 nM and the DC50 (G2019S LRRK2; [5]) was at least 100 nM.

Molecule `CC1(Oc2ccc3n[nH]c(-c4cc(N5CCC(Cc6cccc(CC7CCN(c8ccc9c(c8)C(=O)N(C8CCC(=O)NC8=O)C9=O)CC7)c6)CC5)ncn4)c3c2)CC1` (centres unmarked) [Compound 174, 2-(2,6-dioxo-3-piperidyl)-5-[4-[[3-[[1-[6-[5-(1-methylcyclopropoxy)-2H-indazol-3-yl]pyrimidin-4-yl]-4-piperidyl]methyl]phenyl]methyl]-1-piperidyl]isoindoline-1,3-dione] has a DC50 (wildtype LRRK2; [4]) of at least 100 nM and a DC50 (G2019S LRRK2; [5]) of at least 100 nM.

`CC1(Oc2ccc3[nH]nc(-c4cc(N5CCC(CN6CC7(CN(CC8CCN(c9ccc%10c(c9)C(=O)N(C9CCC(=O)NC9=O)C%10=O)CC8)C7)C6)CC5)ncn4)c3c2)CC1` (centres unmarked) [Compound 175, 2-(2,6-dioxo-3-piperidyl)-5-[4-[[2-[[1-[6-[5-(1-methylcyclopropoxy)-1H-indazol-3-yl]pyrimidin-4-yl]-4-piperidyl]methyl]-2,6-diazaspiro[3.3]heptan-6-yl]methyl]-1-piperidyl]isoindoline-1,3-dione] was tested, and the Dmax (wildtype LRRK2; [4]) was 50 to 70%, the DC50 (wildtype LRRK2; [4]) was under 10 nM and the DC50 (G2019S LRRK2; [5]) was under 10 nM. It also gave a Dmax (G2019S LRRK2; [5]) of 50 to 70%.

Work on `CC1(Oc2ccc3[nH]nc(-c4cc(N5CCC(CN6CC7(CCN7CC7CCN(c8ccc9c(c8)C(=O)N(C8CCC(=O)NC8=O)C9=O)CC7)C6)CC5)ncn4)c3c2)CC1` (centres unmarked) [Compound 176, 2-(2,6-dioxo-3-piperidyl)-5-[4-[[6-[[1-[6-[5-(1-methylcyclopropoxy)-1H-indazol-3-yl]pyrimidin-4-yl]-4-piperidyl]methyl]-1,6-diazaspiro[3.3]heptan-1-yl]methyl]-1-piperidyl]isoindoline-1,3-dione] yielded a Dmax (wildtype LRRK2; [4]) of 50 to 70%, a DC50 (wildtype LRRK2; [4]) of under 10 nM and a DC50 (G2019S LRRK2; [5]) of under 10 nM. The Dmax (G2019S LRRK2; [5]) was under 50%.

With `CC1(Oc2ccc3n[nH]c(-c4cc(N5CCN(CC6CC7(CCN(CC8CCN(c9ccc%10c(c9)C(=O)N(C9CCC(=O)NC9=O)C%10=O)CC8)CC7)C6)CC5)ncn4)c3c2)CC1` (centres unmarked) [Compound 177, 2-(2,6-dioxo-3-piperidyl)-5-[4-[[2-[[4-[6-[5-(1-methylcyclopropoxy)-2H-indazol-3-yl]pyrimidin-4-yl]piperazin-1-yl]methyl]-7-azaspiro[3.5]nonan-7-yl]methyl]-1-piperidyl]isoindoline-1,3-dione] the Dmax (wildtype LRRK2; [4]) was 50 to 70%, the DC50 (wildtype LRRK2; [4]) was 10 to 50 nM and the DC50 (G2019S LRRK2; [5]) was 10 to 50 nM. For the same molecule, the Dmax (G2019S LRRK2; [5]) was 50 to 70%.
